The assay relates to Choline O-acetyltransferase (squid). The assay is described as follows: Compound was tested for inhibition of choline acetyltransferase isolated from squid head ganglia; No inhibition at limit of solubility (4.4*10e-3 M).

For `O=S(=O)(O)c1ccc2ccccc2c1Nc1ccccc1`, the Ki result is reported as “No inhibition at limit of solubility”.

The record behind these values is ChEMBL document CHEMBL1121773, “Interaction of aromatic dyes with the coenzyme A binding site of choline acetyltransferase” (J Med Chem, 1981).
